In patent publication US20110319397A1 (priority 2009, published 2011):

Target: α7-subtype of nicotinic receptors (Mus musculus, UniProt P49582)
Assay type: in vivo, mice
Conditions: ex vivo, mouse hippocampal membranes; dose inhibiting specific binding of 3H-α-bungarotoxin (1 nM) by 50%

Sequence of α7-subtype of nicotinic receptors (P49582 23-502): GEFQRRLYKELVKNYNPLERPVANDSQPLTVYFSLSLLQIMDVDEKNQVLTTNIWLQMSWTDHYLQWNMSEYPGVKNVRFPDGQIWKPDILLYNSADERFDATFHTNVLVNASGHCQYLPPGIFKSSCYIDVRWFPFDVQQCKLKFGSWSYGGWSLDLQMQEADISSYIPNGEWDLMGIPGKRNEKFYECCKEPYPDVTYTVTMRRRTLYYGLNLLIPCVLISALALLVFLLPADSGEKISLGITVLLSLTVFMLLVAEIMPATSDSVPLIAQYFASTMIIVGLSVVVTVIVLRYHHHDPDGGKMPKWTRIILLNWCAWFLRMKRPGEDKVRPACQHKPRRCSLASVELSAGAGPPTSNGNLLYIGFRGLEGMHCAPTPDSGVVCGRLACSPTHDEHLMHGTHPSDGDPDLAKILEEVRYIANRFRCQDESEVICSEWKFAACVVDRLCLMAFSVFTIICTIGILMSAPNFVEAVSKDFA

SMILES: [O-][N+]12CCC(CC1)N(c1nnc(-c3ccoc3)o1)CC2 [Compound 1, 4-(5-Furan-3-yl-[1,3,4]oxadiazol-2-yl)-1,4-diaza-bicyclo[3.2.2]nonane 1-oxide]
- EC50 (mg/kg), Inhibition of 3H-α-Bungarotoxine Binding: 40 mg/kg
